From patent US9630957B2, “2,3-butanediamide epoxide compound and preparation method and use thereof” (Institute of Pharmacology and Toxicology Academy of …, priority 2014, dated 2017)
Converted amounts (≈) assume the structure as drawn.

Experiments:
[1] = test system: Vero cells; experiment: Cytotoxicity of the compounds for Vero cells (CPE observation, TC50); format: cell-based; conditions: no virus
Method: (§1) 2. Sample treatment: the compounds of the present invention are dissolved in DMSO or diluent to prepare stock solution which is stored at −20° C. The stock solution is formulated to suitable incipient concentration with culture solution immediately before use, and then 3-fold diluted with the culture solution, 8 degrees of dilution each.
(§2) 4. Test Method: Vero cells are seeded into a 96-well culture plate, at 5% CO2, and cultured at 37° C. for 16 hours. The Vero cells are added with different dilutions of drugs, and the degree of cytopathic effect (CPE) in each group is observed. The half toxic concentration (TC50) of each sample for Vero cells is calculated. Vero cells are added with 100TCID50 enterovirus EV71 respectively, and the virus solution is discarded after adsorption at 37° C. for 1 hour, and then drugs with various degrees of dilution are added respectively. Virus control and cell control are set and incubated at 37° C. The degree of cytopathic effect (CPE) in each group is observed when the degree of cytopathic effect (CPE) of virus control group reaches 4+. The half inhibitory concentration (IC50) of each sample for enterovirus EV71 are calculated. Selectivity Index (SI) is calculated according to the following equation: SI=TC50/IC50.

[2] = test system: enterovirus EV71 (BrCr strain); experiment: Activity screening for anti-enterovirus EV71: inhibition of cytopathic effect in Vero cells; format: cell-based; conditions: for IC50: 100TCID50, Vero cells, CPE read when virus control reaches 4+, read-out: IC50 (half inhibitory concentration for enterovirus EV71); for SI (Selectivity Index = TC50/IC50): Vero cells
Method: Test item: Activity screening of the compounds for anti-enterovirus EV71
Test principle: Vero cells are used as viral host. The inhibition of the compound of the invention on the degree of cytopathic effect of Vero cells caused by enterovirus virus EV71 is determined.
1. Virus strain: enterovirus EV71 (BrCr, American Type Culture Collection, ATCC)
as §1
3. Positive control drug: Pirodavir (LGM Pharma), which is a broad-spectrum anti-viral inhibitor.
as §2

IC50 [2] [µg/mL]	melting point [°C]	Structure (SMILES)	TC50 (half toxic concentration for Vero cells) [1] [µg/mL]	SI (Selectivity Index = TC50/IC50) [2]
0.36 (≈ 0.616 µM)	202.4 to 203.1	O=C(Nc1nc2ccccc2s1)c1ccc(N(Cc2ccc(F)cc2)C(=O)[C@H]2O[C@@H]2C(=O)Nc2cccc(F)c2)cc1 [Compound 30, (2S,3S)—N^2-(4-(benzo[d]thiazol-2-ylcarbamoyl)phenyl)-N^3-(3-fluorophenyl)-N^2-(4-fluorobenzyl)-2,3-epoxybutanediamide]	1.43	3.97
> 0.27	219.2 to 219.7	O=C(Nc1nc2ccccc2s1)c1ccc(N(Cc2ccc(F)cc2)C(=O)[C@H]2O[C@@H]2C(=O)Nc2ccc(F)c(F)c2)cc1 [Compound 22, (2S,3S)—N^2-(4-(benzo[d]thiazol-2-ylcarbamoyl)phenyl)-N^3-(3,4-difluorophenyl)-N^2-(4-fluorobenzyl)-2,3-epoxybutanediamide]	1.19	–
> 0.82	209.8 to 210.3	O=C(Nc1nc2ccccc2s1)c1ccc(N(Cc2ccc(F)cc2)C(=O)[C@H]2O[C@@H]2C(=O)Nc2cccc(Cl)c2)cc1 [Compound 23, (2S,3S)—N^2-(4-(benzo[d]thiazol-2-ylcarbamoyl)phenyl)-N^3-(3-chlorophenyl)-N^2-(4-fluorobenzyl)-2,3-epoxybutanediamide]	1.43	–
> 0.27	119.4 to 120.2	Cc1c(Cl)cccc1NC(=O)[C@H]1O[C@@H]1C(=O)N(Cc1ccccc1)c1ccccc1 [Compound 13, (2S,3S)—N^2-benzyl-N^2-phenyl-N^3-(2-methyl-3-chlorophenyl)-2,3-epoxybutanediamide]	1.19	–
> 2.47	200.1 to 201.2	COc1ccc(NC(=O)[C@H]2O[C@@H]2C(=O)N(Cc2ccc(F)cc2)c2ccc(C(=O)Nc3nc4ccccc4s3)cc2)cc1 [Compound 20, (2S,3S)—N^2-(4-(benzo[d]thiazol-2-ylcarbamoyl)phenyl)-N^3-(4-methoxyphenyl)-N^2-(4-fluorobenzyl)-2,3-epoxybutanediamide]	13.74	–
> 0.82	206.3 to 207.1	O=C(Nc1nc2ccccc2s1)c1ccc(N(Cc2ccc(F)cc2)C(=O)[C@H]2O[C@@H]2C(=O)Nc2cccc(Br)c2)cc1 [Compound 18, (2S,3S)—N^2-(4-(benzo[d]thiazol-2-ylcarbamoyl)phenyl)-N^3-(3-bromophenyl)-N^2-(4-fluorobenzyl)-2,3-epoxybutanediamide]	1.43	–
38.5 (≈ 61.4 µM)	205.6 to 206.3	COc1ccc(NC(=O)[C@H]2O[C@@H]2C(=O)N(Cc2ccc(F)cc2)c2ccc(C(=O)Nc3nc4ccccc4s3)cc2)cc1OC [Compound 17, (2S,3S)—N^2-(4-(benzo[d]thiazol-2-ylcarbamoyl)phenyl)-N^3-(3,4-dimethoxyphenyl)-N^2-(4-fluorobenzyl)-2,3-epoxybutanediamide]	115.47	3.00
0.82 (≈ 1.96 µM)	160.2 to 161.3	O=C(Nc1ccc([N+](=O)[O-])cc1)[C@H]1O[C@@H]1C(=O)N(Cc1ccccc1)c1ccccc1 [Compound 9, (2S,3S)—N^2-benzyl-N^2-phenyl-N^3-(4-nitrophenyl)-2,3-epoxybutanediamide]	4.28	5.22
> 22.2	198.6 to 199.3	O=C(Nc1nc2ccccc2s1)c1ccc(N(Cc2ccccc2)C(=O)[C@H]2O[C@@H]2C(=O)O)cc1 [Compound 38, (2S,3S)-3-((4-(benzo[d]thiazol-2-ylcarbamoyl)phenyl)(benzyl)carbamoyl)oxirane-2-carboxylic acid]	115.47	–
